From ChEMBL document CHEMBL4411307, “N,N'-diaryl-bishydrazones in a biphenyl platform: Broad spectrum antifungal agents” (Eur J Med Chem, 2019)
In brackets after ≈: the same amount, converted by molar mass. Activity calls are given as the source filed them. The calls are words filed in the database; no cut-off is given here.

Tests used:
Candida parapsilosis = experiment: Antifungal activity against Candida parapsilosis ATCC 22019 measured after 48 hrs by CLSI M27-A3 protocol based method; type: functional; settings: Lodderomyces parapsilosis, ATCC 22019, 48 h
[1] = Selectivity index, ratio of CC50 for human A549 cells to MIC for Candida krusei ATCC 6258; type: toxicity; settings: read-out: Selectivity Index
Listeria monocytogenes = experiment: Antibacterial activity against Listeria monocytogenes; type: functional, organism-based
[2] = Selectivity index, ratio of CC50 for human A549 cells to MIC for Candida parapsilosis ATCC 22019; type: toxicity; settings: read-out: Selectivity Index
[3] = Selectivity index, ratio of CC50 for human A549 cells to MIC for Aspergillus terreus ATCC MYA-3633; type: toxicity; settings: read-out: Selectivity Index
Candida albicans [4] = experiment: Antifungal activity against fluconazole/ITC-resistant Candida albicans ATCC MYA-1237 measured after 48 hrs by CLSI M27-A3 protocol based method; type: functional; settings: ATCC MYA-1237, 48 h
[5] = Selectivity index, ratio of compound concentration showing <20 to <30% hemolysis in mouse RBC to MIC for Candida krusei ATCC 6258; type: toxicity; settings: mouse red blood cells (RBC), read-out: Selectivity Index
Candida albicans [6] = experiment: Antifungal activity against fluconazole/ITC-resistant Candida albicans ATCC MYA-1003 measured after 48 hrs by CLSI M27-A3 protocol based method; type: functional; settings: ATCC MYA-1003, 48 h
[7] = Selectivity index, ratio of compound concentration showing <20 to <30% hemolysis in mouse RBC to MIC for Aspergillus terreus ATCC MYA-3633; type: toxicity; settings: mouse red blood cells (RBC), read-out: Selectivity Index
[8] = Selectivity index, ratio of compound concentration showing <20 to <30% hemolysis in mouse RBC to MIC for Candida glabrata ATCC 2001; type: toxicity; settings: mouse red blood cells (RBC), read-out: Selectivity Index
[9] = Selectivity index, ratio of CC50 for human A549 cells to MIC for fluconazole/ITC-resistant Candida albicans ATCC 10231; type: toxicity; settings: read-out: Selectivity Index
Nakaseomyces glabratus = experiment: Antifungal activity against Candida glabrata ATCC 2001 measured after 48 hrs by CLSI M27-A3 protocol based method; type: functional; settings: CBS 138, 48 h
Candida albicans [10] = experiment: Antifungal activity against fluconazole/ITC-susceptible Candida albicans ATCC MYA-2876 measured after 48 hrs by CLSI M27-A3 protocol based method; type: functional; settings: ATCC MYA-2876, 48 h
BEAS-2B = experiment: Cytotoxicity against human BEAS2B cells after 24 hrs by resazurin based assay; type: cell-based
[11] = Selectivity index, ratio of compound concentration showing <20 to <30% hemolysis in mouse RBC to MIC for Aspergillus nidulans ATCC 38163; type: toxicity; settings: mouse red blood cells (RBC), read-out: Selectivity Index
[12] = Selectivity index, ratio of compound concentration showing <20 to <30% hemolysis in mouse RBC to MIC for fluconazole/ITC-resistant Candida albicans ATCC MYA-1237; type: toxicity; settings: mouse red blood cells (RBC), read-out: Selectivity Index
[13] = Selectivity index, ratio of CC50 for human A549 cells to MIC for fluconazole/ITC-resistant Candida albicans ATCC 90819; type: toxicity; settings: read-out: Selectivity Index
A549 = experiment: Cytotoxicity against human A549 cells after 24 hrs by resazurin based assay; type: cell-based; settings: a549, 24 h
[14] = Selectivity index, ratio of compound concentration showing <20 to <30% hemolysis in mouse RBC to MIC for fluconazole/ITC-susceptible Candida albicans ATCC MYA-2310; type: toxicity; settings: mouse red blood cells (RBC), read-out: Selectivity Index
[15] = Selectivity index, ratio of compound concentration showing <20 to <30% hemolysis in mouse RBC to MIC for fluconazole/ITC-resistant Candida albicans ATCC 10231; type: toxicity; settings: red blood cells (erythrocytes), read-out: Selectivity Index
Pichia kudriavzevii = experiment: Antifungal activity against Candida krusei ATCC 6258 measured after 48 hrs by CLSI M27-A3 protocol based method; type: functional; settings: ATCC 6258, 48 h
[16] = Selectivity index, ratio of compound concentration showing <20 to <30% hemolysis in mouse RBC to MIC for fluconazole/ITC-resistant Candida albicans ATCC 90819; type: toxicity; settings: red blood cells (erythrocytes), read-out: Selectivity Index
[17] = Hemolytic activity in mouse RBC at […] ug/ml after 1 hr relative to control; type: ADME, cell-based, Erythrocyte; settings: red blood cells (erythrocytes), read-out: Activity
Enterococcus = experiment: Antibacterial activity against vancomycin-resistant Enterococcus; type: functional, organism-based
Candida albicans [18] = experiment: Antifungal activity against fluconazole/ITC-resistant Candida albicans ATCC 64124 measured after 48 hrs by CLSI M27-A3 protocol based method; type: functional; settings: ATCC 64124, 48 h
[19] = Selectivity index, ratio of CC50 for human A549 cells to MIC for fluconazole/ITC-resistant Candida albicans ATCC 64124; type: toxicity; settings: read-out: Selectivity Index
[20] = Hemolytic activity in mouse RBC at 3.9 ug/ml after 1 hr relative to control; type: ADME, cell-based, Erythrocyte; settings: red blood cells (erythrocytes), read-out: Activity
[21] = Selectivity index, ratio of CC50 for human A549 cells to MIC for Candida glabrata ATCC 2001; type: toxicity; settings: read-out: Selectivity Index
[22] = Selectivity index, ratio of CC50 for human A549 cells to MIC for fluconazole/ITC-susceptible Candida albicans ATCC MYA-2310; type: toxicity; settings: read-out: Selectivity Index
[23] = Selectivity index, ratio of CC50 for human A549 cells to MIC for fluconazole/ITC-resistant Candida albicans ATCC MYA-1237; type: toxicity; settings: read-out: Selectivity Index
[24] = Selectivity index, ratio of compound concentration showing <20 to <30% hemolysis in mouse RBC to MIC for Candida parapsilosis ATCC 22019; type: toxicity; settings: mouse red blood cells (RBC), read-out: Selectivity Index
[25] = Hemolytic activity in mouse RBC at 62.5 ug/ml after 1 hr relative to control; type: ADME, cell-based, Erythrocyte; settings: red blood cells (erythrocytes), read-out: Activity
[26] = Hemolytic activity in mouse RBC at 1.95 ug/ml after 1 hr relative to control; type: ADME, cell-based, Erythrocyte; settings: red blood cells (erythrocytes), read-out: Activity
Aspergillus terreus = experiment: Antifungal activity against Aspergillus terreus ATCC MYA-3633 measured after 48 hrs by CLSI M38-A2 protocol based method; type: functional; settings: ATCC MYA-3633, 48 h
Aspergillus nidulans = experiment: Antifungal activity against Aspergillus nidulans ATCC 38163 measured after 48 hrs by CLSI M38-A2 protocol based method; type: functional; settings: ATCC 38163, 48 h
[27] = Hemolytic activity in mouse RBC at […] after 1 hr relative to control; type: ADME, cell-based, Erythrocyte; settings: red blood cells (erythrocytes), read-out: Activity; further: tested at 0.48 µg/mL
Candida albicans [28] = experiment: Antifungal activity against fluconazole/ITC-resistant Candida albicans ATCC 90819 measured after 48 hrs by CLSI M27-A3 protocol based method; type: functional; settings: ATCC 90819, 48 h
[29] = Selectivity index, ratio of CC50 for human A549 cells to MIC for Aspergillus nidulans ATCC 38163; type: toxicity; settings: read-out: Selectivity Index
[30] = Hemolytic activity in mouse RBC at 7.8 ug/ml after 1 hr relative to control; type: ADME, cell-based, Erythrocyte; settings: red blood cells (erythrocytes), read-out: Activity
[31] = Selectivity index, ratio of CC50 for human A549 cells to MIC for fluconazole/ITC-resistant Candida albicans ATCC MYA-1003; type: toxicity; settings: read-out: Selectivity Index
Aspergillus flavus = experiment: Antifungal activity against Aspergillus flavus ATCC MYA-3631 measured after 48 hrs by CLSI M38-A2 protocol based method; type: functional; settings: ATCC MYA-3631, 48 h
Candida albicans [32] = experiment: Antifungal activity against fluconazole/ITC-resistant Candida albicans ATCC 10231 measured after 48 hrs by CLSI M27-A3 protocol based method; type: functional; settings: ATCC 10231, 48 h
[33] = Selectivity index, ratio of CC50 for human A549 cells to MIC for fluconazole/ITC-susceptible Candida albicans ATCC MYA-2876; type: toxicity; settings: read-out: Selectivity Index
[34] = Selectivity index, ratio of compound concentration showing <20 to <30% hemolysis in mouse RBC to MIC for fluconazole/ITC-resistant Candida albicans ATCC 64124; type: toxicity; settings: red blood cells (erythrocytes), read-out: Selectivity Index
[35] = Selectivity index, ratio of compound concentration showing <20 to <30% hemolysis in mouse RBC to MIC for fluconazole/ITC-susceptible Candida albicans ATCC MYA-2876; type: toxicity; settings: red blood cells (erythrocytes), read-out: Selectivity Index
Staphylococcus aureus = experiment: Antibacterial activity against methicillin-resistant Staphylococcus aureus; type: functional, organism-based
[36] = Hemolytic activity in mouse RBC at 31.3 ug/ml after 1 hr relative to control; type: ADME, cell-based, Erythrocyte; settings: red blood cells (erythrocytes), read-out: Activity
[37] = Selectivity index, ratio of compound concentration showing <20 to <30% hemolysis in mouse RBC to MIC for Aspergillus flavus ATCC MYA-3631; type: toxicity; settings: mouse red blood cells (RBC), read-out: Selectivity Index
Candida albicans [38] = experiment: Antifungal activity against fluconazole/ITC-susceptible Candida albicans ATCC MYA-2310 measured after 48 hrs by CLSI M27-A3 protocol based method; type: functional; settings: ATCC MYA-2310, 48 h
[39] = Selectivity index, ratio of compound concentration showing <20 to <30% hemolysis in mouse RBC to MIC for fluconazole/ITC-resistant Candida albicans ATCC MYA-1003; type: toxicity; settings: mouse red blood cells (RBC), read-out: Selectivity Index

Fc1cccc(N/N=C/c2ccc(-c3ccc(/C=N/Nc4cccc(F)c4)cc3)cc2)c1
MIC (Candida parapsilosis): 3.9 µg/mL (≈ 9.14 µM) | selectivity ratio [1]: 2 | Activity (Listeria monocytogenes): inactive | selectivity ratio [2]: 8 | selectivity ratio [3]: 1 | MIC (Candida albicans [4]): > 31.3 µg/mL | selectivity ratio [5]: 1 to 32 | MIC (Candida albicans [6]): > 31.3 µg/mL | selectivity ratio [7]: 1 to 32 | selectivity ratio [8]: 1 to 32 | selectivity ratio [9]: 4 | MIC (Nakaseomyces glabratus): > 31.3 µg/mL | MIC (Candida albicans [10]): > 31.3 µg/mL | CC50 (BEAS-2B): 16 µg/mL (≈ 37.5 µM) | selectivity ratio [11]: 1 to 32 | selectivity ratio [12]: 1 to 32 | selectivity ratio [13]: 1 | CC50 (A549): > 31 µg/mL | selectivity ratio [14]: 1 to 32 | selectivity ratio [15]: 1 to 32 | MIC (Pichia kudriavzevii): 15.6 µg/mL (≈ 36.6 µM) | selectivity ratio [16]: 1 to 32 | hemolysis at 1 h, 15.6 ug/ml ([17]; at 15.6 µg/mL): 7.7% | hemolysis at 1 h, 0.975 ug/ml [17]: 0.8% | Activity (Enterococcus): inactive | MIC (Candida albicans [18]): > 31.3 µg/mL | selectivity ratio [19]: 1 | hemolysis at 1 h, 3.9 ug/ml [20]: 3.2% | selectivity ratio [21]: 1 | selectivity ratio [22]: 1 | selectivity ratio [23]: 1 | selectivity ratio [24]: 1 to 32 | hemolysis at 1 h, 62.5 ug/ml [25]: 13.6% | hemolysis at 1 h, 1.95 ug/ml [26]: 0% | MIC (Aspergillus terreus): > 31.3 µg/mL | MIC (Aspergillus nidulans): > 31.3 µg/mL | hemolysis at 1 h, […] [27]: 0.2% | MIC (Candida albicans [28]): > 31.3 µg/mL | selectivity ratio [29]: 1 | hemolysis at 1 h, 7.8 ug/ml [30]: 2.6% | selectivity ratio [31]: 1 | MIC (Aspergillus flavus): 31.3 µg/mL (≈ 73.4 µM) | MIC (Candida albicans [32]): 7.8 µg/mL (≈ 18.3 µM) | selectivity ratio [33]: 1 | selectivity ratio [34]: 1 to 32 | selectivity ratio [35]: 1 to 32 | Activity (Staphylococcus aureus): inactive | hemolysis at 1 h, 31.3 ug/ml [36]: 10.3% | selectivity ratio [37]: 1 to 32 | MIC (Candida albicans [38]): > 31.3 µg/mL | selectivity ratio [39]: 1 to 32
